In brackets after ≈: the same amount, converted by molar mass. Activity calls are given as the source filed them. The rule behind the calls is not given here.
Columns and labels:
[1] = system: Vero; test: Cytotoxicity against African green monkey Vero cells by cell titer glo assay; format: cell-based; settings: Chlorocebus sabaeus
[2] = Half life in mouse liver microsomes; format: ADME; settings: for t1/2: microsomes
[3] = Apparent permeability from apical to basolateral side in human Caco2 cells; format: ADME, cell-based; settings: caco-2
[4] = Apparent permeability from basolateral to apical side in human Caco2 cells; format: ADME, cell-based; settings: caco-2
[5] = Plasma protein binding in human; format: ADME, cell-free
[6] = system: Bacillus anthracis; test: Antimicrobial activity against Bacillus anthracis; format: functional, organism-based
[7] = system: Bacillus subtilis; test: Antimicrobial activity against Bacillus subtilis; format: functional, organism-based
[8] = system: Enterococcus faecalis; test: Antimicrobial activity against Enterococcus faecalis; format: functional, organism-based
[9] = system: Staphylococcus aureus; test: Antimicrobial activity against Staphylococcus aureus; format: functional, organism-based
[10] = system: Streptococcus pyogenes; test: Antimicrobial activity against Streptococcus pyogenes; format: functional, organism-based
[11] = system: Streptococcus pneumoniae; test: Antimicrobial activity against Streptococcus pneumoniae; format: functional, organism-based
[12] = system: Acinetobacter baumannii; test: Antimicrobial activity against Acinetobacter baumannii; format: functional, organism-based
[13] = system: Escherichia coli; test: Antimicrobial activity against Escherichia coli; format: functional, organism-based
[14] = system: Klebsiella pneumoniae; test: Antimicrobial activity against Klebsiella pneumoniae; format: functional, organism-based
[15] = system: Mycobacterium tuberculosis; test: Antimicrobial activity against Mycobacterium tuberculosis H37Rv assessed as growth inhibition after 7 days by microbroth dilution method; format: functional; settings: 168 h
[16] = system: Mus musculus; test: Toxicity in C57BL/6 mouse at 300 mg/kg, po after 3 days; format: organism-based; settings: in vivo, 72 h
[17] = system: Mycobacterium tuberculosis; test: Antimicrobial activity against Mycobacterium tuberculosis H37Rv infected in C57BL/6 mouse assessed as reduction in bacterial load at 100 mg/kg, po after 28 days; format: functional, organism-based
[18] = AUC(infinity) in C57BL/6 mouse at 10 mg/kg, iv; format: ADME, organism-based; design: dose 10 mg/kg, time infinity, route intravenous; settings: in vivo
[19] = Half life in C57BL/6 mouse at 10 mg/kg, iv; format: ADME, organism-based; settings: in vivo
[20] = Clearance in C57BL/6 mouse at 10 mg/kg, iv; format: ADME, organism-based; settings: in vivo
[21] = Volume of distribution at steady state in C57BL/6 mouse at 10 mg/kg, iv; format: ADME, organism-based; settings: in vivo, read-out: Vdss

SMILES | IC50 [1] [µg/mL] | t1/2 [2] [h] | Papp [3] [×10⁻⁶ cm/s] | Papp [4] [×10⁻⁶ cm/s] | PPB [5] [%] | Activity [6] | Activity [7] | Activity [8] | Activity [9] | Activity [10] | Activity [11] | Activity [12] | Activity [13] | Activity [14] | MIC [15] [µg/mL] | also measured
O=[N+]([O-])c1cn2c(n1)OC[C@@H](OCc1ccc(N3CCOCC3)nc1)C2 | > 100 | 28.1 | 37.13 | 27.63 | 14.5 | inactive | inactive | inactive | inactive | inactive | inactive | inactive | inactive | inactive | 3.13 (≈ 8.66 µM) | 
O=C1CCCCN1c1ccc(CO[C@@H]2COc3nc([N+](=O)[O-])cn3C2)cc1F | > 100 | 3.5 | 46.26 | 30.45 | 74.8 | inactive | inactive | inactive | inactive | inactive | inactive | inactive | inactive | inactive | 3.13 (≈ 8.02 µM) | 
CC(=O)NC[C@H]1CN(c2ccc(N3CCOCC3)c(F)c2)C(=O)O1 [LINEZOLID] |  |  |  |  | 17.8 |  |  |  |  |  |  |  |  |  | 0.3 (≈ 0.889 µM) | 
O=[N+]([O-])c1cn2c(n1)OC[C@@H](OCc1ccc(N3CCSCC3)c(F)c1)C2 | 14.2 (≈ 36 µM) | 0.06 | 32.11 | 24.26 | 83.2 | inactive | inactive | inactive | inactive | inactive | inactive | inactive | inactive | inactive | 3.13 (≈ 7.94 µM) | 
O=C1CSCCN1c1ccc(CO[C@@H]2COc3nc([N+](=O)[O-])cn3C2)cn1 | 15.3 (≈ 39.1 µM) | 0.63 | 40 | 31.44 | 32.1 | inactive | inactive | inactive | inactive | inactive | inactive | inactive | inactive | inactive | 50 (≈ 128 µM) | 
O=[N+]([O-])c1cn2c(n1)OC[C@@H](OCc1ccc(N3CCCCC3)c(F)c1)C2 | 56.2 (≈ 149 µM) | 0.41 | 35.46 | 28.47 | 85.6 | inactive | inactive | inactive | inactive | inactive | inactive | inactive | inactive | inactive | < 0.2 | 
O=[N+]([O-])c1cn2c(n1)OC[C@@H](OCc1ccc(N3CCCCC3)cc1)C2 | 11.6 (≈ 32.4 µM) | 0.49 | 31.76 | 26.33 | 83 | inactive | inactive | inactive | inactive | inactive | inactive | inactive | inactive | inactive | 0.39 (≈ 1.09 µM) | 
O=C1CSCCN1c1ccc(CO[C@@H]2COc3nc([N+](=O)[O-])cn3C2)cc1 | > 100 | 0.51 | 39.56 | 38.05 | 59.8 | inactive | inactive | inactive | inactive | inactive | inactive | inactive | inactive | inactive | 25 (≈ 64 µM) | 
O=C1COCCN1c1ccc(CO[C@@H]2COc3nc([N+](=O)[O-])cn3C2)cn1 | > 100 | > 4 | 43.41 | 23.82 | 27.9 | inactive | inactive | inactive | inactive | inactive | inactive | inactive | inactive | inactive | 3.13 (≈ 8.34 µM) | 
O=[N+]([O-])c1cn2c(n1)OC[C@@H](OCc1ccc(N3CCCCC3)nc1)C2 | > 100 | 1.3 | 37.64 | 29.04 | 76.7 | inactive | inactive | inactive | inactive | inactive | inactive | inactive | inactive | inactive | 0.78 (≈ 2.17 µM) | 
O=C1CCCCN1c1ccc(CO[C@@H]2COc3nc([N+](=O)[O-])cn3C2)cc1 | > 100 | 6.7 | 47.25 | 34.2 | 66.4 | inactive | inactive | inactive | inactive | inactive | inactive | inactive | inactive | inactive | 1.56 (≈ 4.19 µM) | 
O=[N+]([O-])c1cn2c(n1)OC[C@@H](OCc1ccc(N3CCOCC3)c(F)c1)C2 | 23.1 (≈ 61.1 µM) | 7.7 | 43.33 | 33.28 | 51.3 | inactive | inactive | inactive | inactive | inactive | inactive | inactive | inactive | inactive |  | Activity [16]: Non-toxic; Activity [17]: inactive; AUC(0-inf) [18]: 10100 ng·h/mL; half-life [19]: 0.98 h; clearance [20]: 16.5 mL/min/kg; Vd [21]: 1.16 L/kg
O=[N+]([O-])c1cn2c(n1)OC[C@@H](OCc1ccc(N3CCSCC3)cc1)C2 | 13.7 (≈ 36.4 µM) | 0.07 | 26.68 | 26.13 | 74.5 | inactive | inactive | inactive | inactive | inactive | inactive | inactive | inactive | inactive | 6.25 (≈ 16.6 µM) | 
O=[N+]([O-])c1cn2c(n1)OC[C@@H](OCc1ccc(N3CCOCC3)cc1)C2 | 42.3 (≈ 117 µM) | 8.3 | 41.49 | 32.25 | 39.4 | inactive | inactive | inactive | inactive | inactive | inactive | inactive | inactive | inactive | 3.13 (≈ 8.69 µM) | 
O=C1CCCCN1c1ccc(CO[C@@H]2COc3nc([N+](=O)[O-])cn3C2)cn1 | > 100 | 20.4 | 33.68 | 29.56 | 39.6 | inactive | inactive | inactive | inactive | inactive | inactive | inactive | inactive | inactive | 3.13 (≈ 8.38 µM) | 
O=C1CSCCN1c1ccc(CO[C@@H]2COc3nc([N+](=O)[O-])cn3C2)cc1F | > 100 | 0.6 | 33.39 | 37.05 | 77.6 | inactive | inactive | inactive | inactive | inactive | inactive | inactive | inactive | inactive | 50 (≈ 122 µM) | 
O=[N+]([O-])c1cn2c(n1)OC[C@@H](OCc1ccc(OC(F)(F)F)cc1)C2 [PRETOMANID] | 44 (≈ 122 µM) |  | 31.58 | 13.14 | 92.9 | inactive | inactive | inactive | inactive | inactive | inactive | inactive | inactive | inactive | 0.39 (≈ 1.09 µM) | half-life ([2]; liver microsomes): 8.1 h

— ChEMBL document CHEMBL3745652, “Synthesis and evaluation of pretomanid (PA-824) oxazolidinone hybrids” (Bioorg Med Chem Lett, 2016)
